Data on 22 compounds can be found in patent US10703757B2, “Compounds and methods for CDK8 modulation and indications therefor” (Plexxikon Inc., priority 2016, dated 2020).

For orientation: IC50 means the point on the concentration scale where inhibition reaches its midpoint. Lower therefore signals inhibition by little substance.

Experiment [1] has as its system CDK8 (phosphorylation of STAT1 at serine 727 in A549 cells). As to the kind of experiment: Cell based Phospho-STAT1 assay (IFNγ-stimulated A549 cells, AlphaLISA). The following applies: Homo sapiens, A549, A549 cells, phospho-STAT1 after IFNγ stimulation. The procedure, abridged:
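A549 cells given serial compound dilutions for 1 h at 37 °C, then stimulated with IFNγ at 10 ng/mL final for 30 min. Lysate STAT1 Ser727 phosphorylation measured by AlphaLISA; % inhibition vs stimulated/unstimulated DMSO controls, IC50 by nonlinear regression.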
(In general: In Alpha technology, singlet oxygen from a donor bead excites a nearby acceptor bead.)

For experiment [2], the system named is CDK8 (TCF/LEF luciferase reporter in HCT116 cells). As to the kind of experiment: Cell based TCF/LEF reporter assay (HCT116+TCF/LEF luciferase). The following applies: Homo sapiens, HCT-116, 24 h. The procedure, abridged: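 Luciferase readout was corrected for viability (CellTiter-Fluor) and scaled between DMSO high and 10 uM CCT251545 low controls, giving IC50 by nonlinear regression. Compounds, serially diluted, were incubated 24 h at 37 °C on HCT116 clones stably expressing a TCF/LEF-driven luciferase reporter.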
(In general: Reporter assays use an easily measured gene product as a stand-in for the process of interest.)

Take `CC(C)(O)Cn1cc(-c2ccc(-c3cnn4cccc(C#CC(C)(C)C(N)=O)c34)cc2)cn1` [Compound P-0006, 4-(3-(4-(1-(2-hydroxy-2-methylpropyl)-1H-pyrazol-4-yl)phenyl)pyrazolo[1,5-a]pyridin-4-yl)-2,2-dimethylbut-3-ynamide]: the IC50 in experiment [1] and in experiment [2] was 0.1 to 100 nM in each case.

Consider `CCCS(=O)(=O)Nc1ccc2cc(-c3cnn4ccnc(C5=CCC(C#N)CC5)c34)ccc2n1` (centres unmarked) [Compound P-0094, N-(6-(4-(4-cyanocyclohex-1-en-1-yl)pyrazolo[1,5-a]pyrazin-3-yl)quinolin-2-yl)propane-1-sulfonamide], for which the IC50 in experiment [1] and in experiment [2] was 0.1 to 100 nM throughout.

`N#CC1CCN(c2cccn3ncc(-c4ccc(OCCCN5CCCCC5)cc4)c23)CC1` [Compound P-0260, 1-(3-(4-(3-(piperidin-1-yl)propoxy)phenyl)pyrazolo[1,5-a]pyridin-4-yl)piperidine-4-carbonitrile]: the IC50 in experiment [1] and in experiment [2] was 100 to 1000 nM throughout.

With `CC(C)(C#Cc1cccn2ncc(-c3ccc4c(cnn4C(F)F)c3)c12)C(=O)O` [Compound P-0067, 4-(3-(1-(difluoromethyl)-1H-indazol-5-yl)pyrazolo[1,5-a]pyridin-4-yl)-2,2-dimethylbut-3-ynoic acid], the IC50 lay within 100 to 1000 nM in experiment [1] and 0.1 to 100 nM in experiment [2].

As for `COc1ccc(-c2cnn3ccnc(C4=CCC(C#N)CC4)c23)cc1` (centres unmarked) [Compound P-0088, 4-(3-(4-methoxyphenyl)pyrazolo[1,5-a]pyrazin-4-yl)cyclohex-3-ene-1-carbonitrile], the IC50 in experiment [1] and in experiment [2] was 0.1 to 100 nM each time.

Turning to `CS(=O)(=O)Nc1ccc2cc(-c3cnn4cccc(C5=CCC(C#N)CC5)c34)ccc2c1` (centres unmarked) [Compound P-0199, N-(6-(4-(4-cyanocyclohex-1-en-1-yl)pyrazolo[1,5-a]pyridin-3-yl)naphthalen-2-yl)methanesulfonamide], the IC50 in experiment [1] and in experiment [2] was 0.1 to 100 nM in each case.

Turning to `N#CC1CC=C(c2cccn3ncc(-c4ccc(OCCN5CCOCC5)cc4)c23)CC1` (centres unmarked) [Compound P-0183, 4-(3-(4-(2-morpholino-ethoxy)phenyl)pyrazolo[1,5-a]pyridin-4-yl)cyclohex-3-ene-1-carbonitrile], the IC50 in experiment [1] and in experiment [2] was 0.1 to 100 nM each time.

As for `CNC(=O)C1CCC(c2cccn3ncc(-c4ccc(-c5cnn(C(F)F)c5)cc4)c23)CC1` (centres unmarked) [Compound P-0317, 4-(3-(4-(1-(difluoromethyl)-1H-pyrazol-4-yl)phenyl)pyrazolo[1,5-a]pyridin-4-yl)-N-methylcyclohexane-1-carboxamide], the values for the IC50 in experiment [1] and in experiment [2] were 0.1 to 100 nM and 100 to 1000 nM, respectively.

Regarding `Cn1cc(C#Cc2cnc3cccc(N4CCC5(CC4)CC(=O)NC5=O)n23)cn1` [Compound P-0238, 8-(3-((1-methyl-1H-pyrazol-4-yl)ethynyl)imidazo[1,2-a]pyridin-5-yl)-2,8-diazaspiro[4.5]decane-1,3-dione], the half-inhibitory concentration (IC50) in experiment [1] and in experiment [2] was 0.1 to 100 nM throughout.

With `Cn1cc(-c2ccc(-c3cnn4cccc(N5CCC(F)(C(N)=O)CC5)c34)cc2)cn1` [Compound P-0285, 4-fluoro-1-(3-(4-(1-methyl-1H-pyrazol-4-yl)phenyl)pyrazolo[1,5-a]pyridin-4-yl)piperidine-4-carboxamide], the IC50 in experiment [1] and in experiment [2] was 100 to 1000 nM throughout.

For the compound `N#CC1CC=C(c2nccn3ncc(-c4ccc(Cl)cc4)c23)CC1` (centres unmarked) [Compound P-0090, 4-(3-(4-chlorophenyl)pyrazolo[1,5-a]pyrazin-4-yl)cyclohex-3-ene-1-carbonitrile], the IC50 in experiment [1] and in experiment [2] was 0.1 to 100 nM each time.

For the compound `COc1ccc2cc(-c3cnn4ccnc(C5=CCC(C(N)=O)CC5)c34)ccc2n1` (centres unmarked) [Compound P-0154, 4-(3-(2-methoxyquinolin-6-yl)pyrazolo[1,5-a]pyrazin-4-yl)cyclohex-3-ene-1-carboxamide], the IC50 in experiment [1] and in experiment [2] was 0.1 to 100 nM throughout.

As to `CC(C)(C#Cc1nccn2ncc(-c3ccc4c(cnn4C(F)F)c3)c12)C(N)=O` [Compound P-0095, 4-(3-(1-(difluoromethyl)-1H-indazol-5-yl)pyrazolo[1,5-a]pyrazin-4-yl)-2,2-dimethylbut-3-ynamide], the IC50 in experiment [1] and in experiment [2] was 0.1 to 100 nM throughout.

On to `N#CC1CCN(c2cccn3ncc(-c4ccc(OCC5CCCCO5)cc4)c23)CC1` (centres unmarked) [Compound P-0264, 1-(3-(4-((tetrahydro-2H-pyran-2-yl)methoxy)phenyl)pyrazolo[1,5-a]pyridin-4-yl)piperidine-4-carbonitrile], for which the IC50 in experiment [1] and in experiment [2] was 0.1 to 100 nM in each case.

For `N#CC1CC=C(c2cccc3ncc(-c4ccc(-c5cnn(C(F)F)c5)cc4)n23)CC1` (centres unmarked) [Compound P-0438, 4-(3-(4-(1-(difluoromethyl)-1H-pyrazol-4-yl)phenyl)imidazo[1,2-a]pyridin-5-yl)cyclohex-3-ene-1-carbonitrile], the IC50 in experiment [1] and in experiment [2] was 0.1 to 100 nM in each case.

Turning to `Cc1ccc2cc(-c3cnn4ccnc(C5=CCC(C#N)CC5)c34)ccc2n1` (centres unmarked) [Compound P-0186, 4-(3-(2-methylquinolin-6-yl)pyrazolo[1,5-a]pyrazin-4-yl)cyclohex-3-ene-1-carbonitrile], the IC50 in experiment [1] and in experiment [2] was 0.1 to 100 nM throughout.

On to `CS(=O)(=O)Nc1ccc2cc(-c3cnn4ccnc(C5=CCC(C#N)CC5)c34)ccc2n1` (centres unmarked) [Compound P-0151, N-(6-(4-(4-cyanocyclohex-1-ene-1-yl)pyrazolo[1,5-a]pyrazin-3-yl)quinolin-2-yl)methanesulfonamide], for which the IC50 in experiment [1] and in experiment [2] was 0.1 to 100 nM each time.

With `CS(=O)(=O)c1ccc(-c2cnn3cccc(C4=CCC(C#N)CC4)c23)cc1F` (centres unmarked) [Compound P-0126, 4-(3-(3-fluoro-4-(methyl-sulfonyl)phenyl)pyrazolo[1,5-a]pyridin-4-yl)cyclohex-3-ene-1-carbonitrile], the IC50 in experiment [1] lay within 0.1 to 100 nM; in experiment [2], 100 to 1000 nM.

Turning to `N#CC1CCC(c2nccn3ncc(-c4ccc(-c5cnn(CC(F)F)c5)cc4)c23)CC1` (centres unmarked) [Compound P-0021, (1s,4s)-4-(3-(4-(1-(2,2-difluoroethyl)-1H-pyrazol-4-yl)phenyl)pyrazolo[1,5-a]pyrazin-4-yl)cyclohexane-1-carbonitrile], the IC50 in experiment [1] and in experiment [2] was 0.1 to 100 nM each time.

`Cc1cc(-c2cnn3ccnc(C4=CCC(C#N)CC4)c23)ccc1-c1cnn(CC(C)(C)O)c1` (centres unmarked) [Compound P-0024, 4-(3-(4-(1-(2-hydroxy-2-methylpropyl)-1H-pyrazol-4-yl)-3 methylphenyl)pyrazolo[1,5-a]pyrazin-4-yl)cyclohex-3-ene-1-carbonitrile]: the IC50 in experiment [1] and in experiment [2] was 0.1 to 100 nM throughout.

With `O=C(O)C1CC=C(c2cccn3ncc(-c4ccc(-n5cccn5)cc4)c23)CC1` (centres unmarked) [Compound P-0213, 4-(3-(4-(1H-pyrazol-1-yl)phenyl)pyrazolo[1,5-a]pyridin-4-yl)cyclohex-3-ene-1-carboxylic acid], the IC50 in experiment [1] and in experiment [2] was 1000 to 10000 nM each time.

For the compound `CC(C)(O)Cn1cc(-c2ccc(-c3cnn4ccnc(C5CCC(C#N)CC5)c34)nc2)cn1` (centres unmarked) [Compound P-0458, (1s,4s)-4-(3-(5-(1-(2-hydroxy-2-methylpropyl)-1H-pyrazol-4-yl)pyridin-2-yl)pyrazolo[1,5-a]pyrazin-4-yl)cyclohexane-1-carbonitrile], the IC50 in experiment [1] and in experiment [2] was 0.1 to 100 nM throughout.
